Experimental data taken from ChEMBL document CHEMBL6177998, “Rational Design of Dual Degraders by Incorporating Molecular Glue Structural Features into PROTAC Degraders” (J Med Chem, 2025).
Active and inactive are the calls of the source. The calls are words filed in the database; no cut-off is given here.

Assays:
Assay type in all cases: cell-based
[1] = target: T1, Protein cereblon/Androgen receptor (Homo sapiens, UniProt P10275+Q96SW2); test: PROTAC activity at CRBN/AR in human 22Rv1 cells assessed as induction of AR degradation at 0.01 uM incubated for 24 hrs by Western blot analysis relative to control
[2] = target: T1, Protein cereblon/Androgen receptor; test: PROTAC activity at CRBN/AR in human 22Rv1 cells assessed as induction of AR degradation at 0.1 uM incubated for 24 hrs by Western blot analysis relative to control
[3] = system: Protein cereblon/Androgen receptor (Homo sapiens), P10275+Q96SW2 [UNDEFINED MUTATION]; test: PROTAC activity at CRBN/Androgen receptor splice variant 7 in human 22Rv1 cells assessed as induction of AR-V7 degradation at 0.01 uM incubated for 24 hrs by Western blot analysis relative to control
[4] = system: Protein cereblon/Androgen receptor (Homo sapiens), P10275+Q96SW2 [UNDEFINED MUTATION]; test: PROTAC activity at CRBN/Androgen receptor splice variant 7 in human 22Rv1 cells assessed as induction of AR-V7 degradation at 0.1 uM incubated for 24 hrs by Western blot analysis relative to control
[5] = target: T1, Protein cereblon/Androgen receptor; test: PROTAC activity at CRBN/AR in human VCaP cells assessed as induction of AR degradation at 0.01 uM incubated for 24 hrs by Western blot analysis relative to control
[6] = target: T1, Protein cereblon/Androgen receptor; test: PROTAC activity at CRBN/AR in human VCaP cells assessed as induction of AR degradation at 0.1 uM incubated for 24 hrs by Western blot analysis relative to control
[7] = system: Protein cereblon/Androgen receptor (Homo sapiens), P10275+Q96SW2 [UNDEFINED MUTATION]; test: PROTAC activity at CRBN/Androgen receptor splice variant 7 in human VCaP cells assessed as induction of AR-V7 degradation at 0.01 uM incubated for 24 hrs by Western blot analysis relative to control
[8] = system: Protein cereblon/Androgen receptor (Homo sapiens), P10275+Q96SW2 [UNDEFINED MUTATION]; test: PROTAC activity at CRBN/Androgen receptor splice variant 7 in human VCaP cells assessed as induction of AR-V7 degradation at 0.1 uM incubated for 24 hrs by Western blot analysis relative to control
[9] = target: T2, Protein cereblon/Eukaryotic peptide chain release factor GTP-binding subunit ERF3A (Homo sapiens, UniProt Q96SW2+P15170); test: Molecular glue activity at CRBN/GSPT1 in human 22Rv1 cells assessed as induction of GSPT1 degradation at 0.01 uM incubated for 24 hrs by Western blot analysis relative to control
[10] = target: T2, Protein cereblon/Eukaryotic peptide chain release factor GTP-binding subunit ERF3A; test: Molecular glue activity at CRBN/GSPT1 in human 22Rv1 cells assessed as induction of GSPT1 degradation at 0.1 uM incubated for 24 hrs by Western blot analysis relative to control
[11] = target: T1, Protein cereblon/Androgen receptor; test: PROTAC activity at CRBN/AR in human 22Rv1 cells assessed as induction of AR degradation at 1 uM incubated for 24 hrs by Western blot analysis relative to control
[12] = target: T1, Protein cereblon/Androgen receptor; test: PROTAC activity at CRBN/AR in human 22Rv1 cells assessed as induction of AR degradation at 5 uM incubated for 24 hrs by Western blot analysis relative to control
[13] = system: Protein cereblon/Androgen receptor (Homo sapiens), P10275+Q96SW2 [UNDEFINED MUTATION]; test: PROTAC activity at CRBN/Androgen receptor splice variant 7 in human 22Rv1 cells assessed as induction of AR-V7 degradation at 1 uM incubated for 24 hrs by Western blot analysis relative to control
[14] = system: Protein cereblon/Androgen receptor (Homo sapiens), P10275+Q96SW2 [UNDEFINED MUTATION]; test: PROTAC activity at CRBN/Androgen receptor splice variant 7 in human 22Rv1 cells assessed as induction of AR-V7 degradation at 5 uM incubated for 24 hrs by Western blot analysis relative to control
[15] = target: T1, Protein cereblon/Androgen receptor; test: PROTAC activity at CRBN/AR in human VCaP cells assessed as induction of AR degradation at 1 uM incubated for 24 hrs by Western blot analysis relative to control
[16] = target: T1, Protein cereblon/Androgen receptor; test: PROTAC activity at CRBN/AR in human VCaP cells assessed as induction of AR degradation at 5 uM incubated for 24 hrs by Western blot analysis relative to control
[17] = system: Protein cereblon/Androgen receptor (Homo sapiens), P10275+Q96SW2 [UNDEFINED MUTATION]; test: PROTAC activity at CRBN/Androgen receptor splice variant 7 in human VCaP cells assessed as induction of AR-V7 degradation at 1 uM incubated for 24 hrs by Western blot analysis relative to control
[18] = system: Protein cereblon/Androgen receptor (Homo sapiens), P10275+Q96SW2 [UNDEFINED MUTATION]; test: PROTAC activity at CRBN/Androgen receptor splice variant 7 in human VCaP cells assessed as induction of AR-V7 degradation at 5 uM incubated for 24 hrs by Western blot analysis relative to control
[19] = target: T2, Protein cereblon/Eukaryotic peptide chain release factor GTP-binding subunit ERF3A; test: Molecular glue activity at CRBN/GSPT1 in human 22Rv1 cells assessed as induction of GSPT1 degradation at 1 uM incubated for 24 hrs by Western blot analysis relative to control
[20] = target: T2, Protein cereblon/Eukaryotic peptide chain release factor GTP-binding subunit ERF3A; test: Molecular glue activity at CRBN/GSPT1 in human 22Rv1 cells assessed as induction of GSPT1 degradation at 5 uM incubated for 24 hrs by Western blot analysis relative to control
[21] = target: T2, Protein cereblon/Eukaryotic peptide chain release factor GTP-binding subunit ERF3A; test: Molecular glue activity at CRBN/GSPT1 in human 22Rv1 cells assessed as induction of GSPT1 degradation at 0.1 to 10 uM incubated for 24 hrs by Western blot analysis relative to control; conditions: dose 0.1-10 µM
[22] = target: T3, Androgen receptor (Homo sapiens) (UniProt P10275); test: Binding affinity to Androgen receptor in human 22Rv1 cells incubated for 6 hrs by streptavidin pull down based immunoprecipitation analysis
T3 sequence (whole entry): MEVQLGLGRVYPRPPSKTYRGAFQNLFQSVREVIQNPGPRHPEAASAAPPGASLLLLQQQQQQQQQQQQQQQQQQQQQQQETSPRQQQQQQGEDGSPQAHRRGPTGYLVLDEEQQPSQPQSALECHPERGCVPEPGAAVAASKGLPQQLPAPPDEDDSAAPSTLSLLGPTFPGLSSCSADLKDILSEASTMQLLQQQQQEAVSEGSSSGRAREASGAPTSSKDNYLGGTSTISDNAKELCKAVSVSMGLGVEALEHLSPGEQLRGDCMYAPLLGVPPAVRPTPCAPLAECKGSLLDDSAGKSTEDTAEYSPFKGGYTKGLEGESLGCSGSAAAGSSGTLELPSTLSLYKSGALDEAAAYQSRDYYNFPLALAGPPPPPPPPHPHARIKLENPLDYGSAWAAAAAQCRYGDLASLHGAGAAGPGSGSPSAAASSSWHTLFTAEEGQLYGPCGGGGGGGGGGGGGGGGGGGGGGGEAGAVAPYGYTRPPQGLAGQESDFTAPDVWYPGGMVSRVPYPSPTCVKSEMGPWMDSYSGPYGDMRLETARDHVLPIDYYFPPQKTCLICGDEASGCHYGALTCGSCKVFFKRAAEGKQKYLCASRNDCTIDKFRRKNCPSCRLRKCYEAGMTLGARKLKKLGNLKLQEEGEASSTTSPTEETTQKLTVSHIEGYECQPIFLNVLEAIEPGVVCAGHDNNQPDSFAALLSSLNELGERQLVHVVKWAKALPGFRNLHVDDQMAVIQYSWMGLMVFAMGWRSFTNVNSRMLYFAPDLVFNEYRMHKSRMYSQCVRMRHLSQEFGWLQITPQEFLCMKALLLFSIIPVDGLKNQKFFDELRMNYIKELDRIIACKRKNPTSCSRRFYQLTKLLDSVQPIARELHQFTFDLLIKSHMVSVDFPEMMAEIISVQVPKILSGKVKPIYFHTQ

Sequence of Protein cereblon/Androgen receptor (Homo sapiens), P10275+Q96SW2 [UNDEFINED MUTATION] (Q96SW2 whole entry, looked up, change not shown, one chain of several, canonical isoform): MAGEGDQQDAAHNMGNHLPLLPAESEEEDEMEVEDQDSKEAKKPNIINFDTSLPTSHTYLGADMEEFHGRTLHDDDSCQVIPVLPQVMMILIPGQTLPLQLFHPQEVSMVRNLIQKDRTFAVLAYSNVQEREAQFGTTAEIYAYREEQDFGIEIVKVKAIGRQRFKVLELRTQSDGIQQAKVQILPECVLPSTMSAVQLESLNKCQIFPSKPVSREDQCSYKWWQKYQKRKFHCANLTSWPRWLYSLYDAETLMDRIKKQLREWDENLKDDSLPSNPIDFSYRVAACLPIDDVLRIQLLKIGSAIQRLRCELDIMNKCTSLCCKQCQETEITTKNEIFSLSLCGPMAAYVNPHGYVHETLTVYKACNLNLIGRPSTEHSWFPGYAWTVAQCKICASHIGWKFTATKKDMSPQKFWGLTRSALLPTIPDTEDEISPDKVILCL
T1 sequence (Q96SW2 whole entry, looked up, one chain of several): as the sequence (Q96SW2 whole entry, looked up, change not shown, one chain of several, canonical isoform) above
T2 sequence (P15170 whole entry, looked up): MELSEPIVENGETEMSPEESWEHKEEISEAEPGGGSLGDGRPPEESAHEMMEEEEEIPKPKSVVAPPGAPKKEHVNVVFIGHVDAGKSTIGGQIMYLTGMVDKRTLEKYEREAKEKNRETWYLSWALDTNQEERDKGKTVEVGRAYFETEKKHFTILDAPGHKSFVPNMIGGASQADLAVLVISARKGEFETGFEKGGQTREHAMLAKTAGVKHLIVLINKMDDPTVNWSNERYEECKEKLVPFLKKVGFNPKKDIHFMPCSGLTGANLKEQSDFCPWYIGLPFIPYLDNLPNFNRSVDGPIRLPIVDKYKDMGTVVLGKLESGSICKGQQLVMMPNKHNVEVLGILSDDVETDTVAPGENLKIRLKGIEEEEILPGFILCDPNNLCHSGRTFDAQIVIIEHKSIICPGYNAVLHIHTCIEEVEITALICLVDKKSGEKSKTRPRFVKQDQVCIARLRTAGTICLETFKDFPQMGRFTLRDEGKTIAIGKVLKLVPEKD
T2 sequence (Q96SW2 whole entry, looked up): as the sequence (Q96SW2 whole entry, looked up, change not shown, one chain of several, canonical isoform) above

Activity [1] | Activity [2] | Activity [3] | Activity [4] | Activity [5] | Activity [6] | Activity [7] | Activity [8] | Activity [9] | Activity [10] | Compound | also measured
72.5% | 73.5% | 76.8% | 89.1% | 83.9% | 85.1% | 43.6% | 40.1% | 96.6% | 96.1% | CC(C)(c1ccc(OCC2CCOC2)cc1)c1cc(Cl)c(OCC2CCN(C(=O)CCCCCNc3ccc4c(c3)C(=O)N(C3CCC(=O)NC3=O)C4=O)CC2)c(C#N)c1 (configuration not stated) | 
48% | 79.3% | 68.5% | 83.9% | < 5% | 63% | < 5% | < 5% | 93.6% | 96.1% | CC(C)(c1ccc(OCC2CCOCC2)cc1)c1cc(Cl)c(OCC2CCN(C(=O)CCCCCNc3ccc4c(c3)C(=O)N(C3CCC(=O)NC3=O)C4=O)CC2)c(C#N)c1 (configuration not stated) | 
31.4% | 77.4% | 32.8% | 53.2% | 17.1% | 92.2% | 49.9% | 80.7% | 80.3% | 94.2% | CC(C)(c1ccc(OCC2CCN(C(=O)CCCCCNc3ccc4c(c3)C(=O)N(C3CCC(=O)NC3=O)C4=O)CC2)cc1)c1ccc(OC[C@H](O)CCl)cc1 (some centres not stated) | Activity [11]: 69.8%; Activity [12]: 75%; Activity [13]: 54.1%; Activity [14]: 63.6%; Activity [15]: 42.5%; Activity [16]: 50.8%; Activity [17]: 46%; Activity [18]: 42%; Activity [19]: 94.5%; Activity [20]: 95.1%
39.7% | 72.9% | 11.5% | 57.3% | < 5% | 69.8% | < 5% | 69.1% | 72.9% | 93.3% | COc1ccc(C(C)(C)c2cc(Cl)c(OCC3CCN(C(=O)CCCCCNc4ccc5c(c4)C(=O)N(C4CCC(=O)NC4=O)C5=O)CC3)c(Cl)c2)cc1 (configuration not stated) | 
< 5% | 50.1% | < 5% | 58.5% | < 5% | 21.7% | < 5% | 21.1% | 81.5% | 97.3% | CC(C)(c1ccc(OCc2ccccc2)cc1)c1cc(Cl)c(OCC2CCN(C(=O)CCCCCNc3ccc4c(c3)C(=O)N(C3CCC(=O)NC3=O)C4=O)CC2)c(C#N)c1 (configuration not stated) | 
13.9% | 30% | < 5% | 5.1% | < 5% | < 5% | < 5% | 28.6% | 37.3% | 92.8% | CC(C)(c1ccc(OCCCCl)cc1)c1ccc(OCC2CCN(C(=O)CCCCCNc3ccc4c(c3)C(=O)N(C3CCC(=O)NC3=O)C4=O)CC2)cc1 (configuration not stated) | 
66.4% | 80.8% | 68.6% | 75% | 78.7% | 78.1% | 49.5% | 29.8% | 95.3% | 96.1% | CC1(COc2ccc(C(C)(C)c3cc(Cl)c(OCC4CCN(C(=O)CCCCCNc5ccc6c(c5)C(=O)N(C5CCC(=O)NC5=O)C6=O)CC4)c(C#N)c3)cc2)COC1 (configuration not stated) | 
 |  |  |  |  |  |  |  |  |  | CC(C)(c1ccc(OC[C@H](O)CO)cc1)c1ccc(OC[C@H](O)CCl)cc1 | Activity [21]: inactive
80.3% | 85.7% | 75.2% | 74.7% | 72.4% | 74.7% | 84.2% | 94% | 97.6% | 97.5% | CC(C)(c1ccc(OCc2cncnc2)cc1)c1cc(Cl)c(OCC2CCN(C(=O)CCCCCNc3ccc4c(c3)C(=O)N(C3CCC(=O)NC3=O)C4=O)CC2)c(C#N)c1 (configuration not stated) | 
78.3% | 67.1% | 64.2% | 71% | 82.5% | 81.2% | 34.8% | 27.8% | 96.8% | 96.5% | CC(C)(c1ccc(OCC2COC2)cc1)c1cc(Cl)c(OCC2CCN(C(=O)CCCCCNc3ccc4c(c3)C(=O)N(C3CCC(=O)NC3=O)C4=O)CC2)c(C#N)c1 (configuration not stated) | 
< 5% | < 5% | < 5% | 25.2% | 25.1% | 17.3% | < 5% | 10% | 74.6% | 88.6% | COc1ccc(C(C)(C)c2cc(Cl)c(OCC3CCN(C(=O)CCCCCNc4cc5c(cc4F)C(=O)N(C4CCC(=O)NC4=O)C5=O)CC3)c(C#N)c2)cc1 (configuration not stated) | 
75.1% | 80.5% | 75.5% | 77.7% | 61.3% | 58.8% | 72.3% | 84.5% | 97.5% | 97.2% | CC(C)(c1ccc(OCc2ccncn2)cc1)c1cc(Cl)c(OCC2CCN(C(=O)CCCCCNc3ccc4c(c3)C(=O)N(C3CCC(=O)NC3=O)C4=O)CC2)c(C#N)c1 (configuration not stated) | 
 |  |  |  |  |  |  |  |  |  | COc1ccc(C(C)(C)c2cc(Cl)c(OCC3CCN(C(=O)CCCC[C@@H]4SC[C@@H]5NC(=O)N[C@@H]54)CC3)c(C#N)c2)cc1 | Activity [22]: Active
71.5% | 78% | 70.6% | 71.9% | < 5% | 34.5% | < 5% | 40.6% | 95.6% | 96.7% | CC(C)(c1ccc(OCC2CCN(S(C)(=O)=O)CC2)cc1)c1cc(Cl)c(OCC2CCN(C(=O)CCCCCNc3ccc4c(c3)C(=O)N(C3CCC(=O)NC3=O)C4=O)CC2)c(C#N)c1 (configuration not stated) | 
38.5% | 79.5% | 6.7% | 57.4% | 20.7% | 83.9% | 23.3% | 54.5% | 88.3% | 94% | COc1ccc(C(C)(C)c2ccc(OCC3CCN(C(=O)CCCCCNc4ccc5c(c4)C(=O)N(C4CCC(=O)NC4=O)C5=O)CC3)cc2)cc1 (configuration not stated) | 
